Source: paper PMC7948422, “Repurposing p97 inhibitors for chemical modulation of the bacterial ClpB–DnaK bichaperone system” (The Journal of Biological Chemistry, 2020)
Values joined by “and” are separate entries in the source; they are usually repeats but may differ in a detail not shown here. Equal entries are not always repeated. “Also recorded” adds a separate entry of the source.

Legend:
ClpB E279Q/E678Q = molecular target: T1, ClpB E279Q/E678Q (Escherichia coli, UniProt P63284, E279Q/E678Q); assay: FITC-casein fluorescence anisotropy titration with ClpB E279Q/E678Q; format: binding
T1 construct: made in house
Experimental: To monitor interactions between casein and ClpB, we used FITC-casein and the substrate-trapping ClpB E279Q/E678Q variant ([52], [73]). The titration of FITC-casein with ClpB E279Q/E678Q in the presence of ATP or ADP and the fluorescence anisotropy measurements were performed as previously described ([65]).

ClpB W543F = molecular target: T2, ClpB W543F (Escherichia coli, UniProt P63284, W543F); assay: Surface plasmon resonance, immobilized ClpB W543F; format: binding
T2 construct: made in house
Experimental: (§1) ClpB, DnaK, and the NBD of DnaK were extensively dialyzed against the SPR buffer (20-mM Hepes, pH 7.4, 150-mM NaCl, 20-mM MgCl2, 1-mM EDTA, 1-mM DTT). After dialysis, the protein concentration was determined by the Bradford method. The DBeQ–protein interactions were studied using a Biacore T200 instrument (GE Healthcare) at 25 °C. The proteins were diluted to 300 μg/ml in 10-mM sodium acetate buffer (pH 5 for ClpB DnaK or pH 4 for NBD) and immobilized on HC1500M sensor chips (Xantec) by standard amine coupling chemistry as described previously ([70]). A reference flow cell was created by ethyl(dimethylaminopropyl) carbodiimide/N-hydroxysuccinimide activation followed by quenching with 1 M ethanolamine (pH 9.0). Solvent correction curves were obtained at the beginning and end and after every 50 injection cycles by injecting varying DMSO concentrations (4.0, 4.4, 4.6, 4.8, 5.0, 5.2, 5.4, and 5.9% [v/v]). All experiments were performed using a flow rate of 30 μl/min.
Binding isotherms were obtained with the ligand diluted to different concentrations in the SPR running buffer HBSMTD (20-mM Hepes, pH 7.4, 140-mM NaCl, 20-mM MgCl2, 5% (v/v) DMSO, 0.005% (v/v) Tween-20). Replicate injections were performed for all samples, and a buffer-only injection was performed for every 12 injection cycles. To test the structural integrity of ClpB after immobilization on the sensor chips, we performed control titrations with ATPγS and adenosine. The dissociation constants determined from those experiments were ∼20 μM for ATPγS and ∼2 mM for adenosine. […] Moreover, the immobilized ClpB discriminated between a nucleotide analog and a nucleoside, which indicated an adequate structural integrity of ClpB on the sensor chips.
The resulting sensorgrams were analyzed using Biacore T200 Evaluation Software v3.0 according to the following procedure. Solvent correction curves were generated and applied to all data sets, and all sensorgrams were double-referenced by subtracting the most recent buffer blank injection. […]

DnaK = molecular target: T3, DnaK (Escherichia coli, UniProt P0A6Y8); assay: Surface plasmon resonance, immobilized DnaK; format: binding
T3 construct: full-length E. coli DnaK (residues 1–638); made in house; host or cells: E. coli BL21(DE3)
Experimental: as §1, with “All experiments were performed using a flow rate of 30 μl/min.” left out
Binding isotherms were obtained with the ligand diluted to different concentrations in the SPR running buffer HBSMTD (20-mM Hepes, pH 7.4, 140-mM NaCl, 20-mM MgCl2, 5% (v/v) DMSO, 0.005% (v/v) Tween-20). […] The dissociation constants determined from those experiments were ∼20 μM for ATPγS and ∼2 mM for adenosine. […]
The resulting sensorgrams were analyzed using Biacore T200 Evaluation Software v3.0 according to the following procedure. […]

[1] = Solubility of DBeQ in aqueous buffer (absorbance/turbidity); format: physicochemical; conditions: aqueous ATPase assay buffer, 1% DMSO
Experimental: Supplementary Figure 3. Solubility of DBeQ in aqueous solution. Solutions of DBeQ
were prepared in the ATPase assay buffer containing 1% DMSO. (A) DBeQ absorbance at
320 nm (blue) and solution turbidity at 400 nm (red) for increasing DBeQ concentrations. (B)
UV absorption spectrum of 100 μM DBeQ.
Supplementary Figure 4. The ATP-binding modules (D1 and D2) separated with the
middle domain (MD) in E. coli ClpB (PDB entry: 5OG1). Trp462 (red), Trp543 (magenta),
and the ATP-analog, ATPγS (dark blue) bound in D1 and D2 are shown with a “stick”
representation. Image generated using PyMOL 1.3 (Schrödinger LLC, www.pymol.com). […]

E. coli MC4100 = assay: Bacterial growth and viability, E. coli MC4100; format: cell-based, Escherichia coli
Experimental: E. coli MC4100, MC4100ΔclpB, dnaK103, and dnaK756 strains were used to determine an influence of DBeQ on bacterial growth and viability. Bacteria were maintained in the LB media, and in the case of the MC4100ΔclpB strain, LB was supplemented with 30 μg/ml kanamycin. All experiments were initiated by preparing overnight cultures inoculated from single colonies and grown at 37 °C. The dnaK103 and dnaK756 overnight cultures were grown at 30 °C. On the following day, the cultures were diluted 100-fold in 10 ml of LB without antibiotics and incubated at 37 °C. The culture optical density was monitored at 600 nm. When absorbance at 600 nm reached 0.4, the culture was divided into 1-ml aliquots and supplemented with 10 μl of DMSO or different concentrations of DBeQ in DMSO. The samples were immediately transferred into an incubator/shaker at temperature 37, 45, or 50 °C. Bacteria were cultured for up to 4 h with shaking (200 RPM). At specific time points, 100 μl of each culture was withdrawn and serially diluted in sterile 0.9% NaCl up to 10^6-fold dilution. To estimate the number of viable cells, 5 μl or 10 μl of the diluted cultures was spread on the LB-agar plate without an antibiotic. After a complete adsorption of liquid on the LB-agar surface, the plates were incubated overnight at 37 °C. On the following day, the bacterial colonies were counted and the colony-forming units/ml were calculated.

c1ccc(CNc2nc(NCc3ccccc3)c3ccccc3n2)cc1 [DBeQ, N^2,N^4-dibenzylquinazoline-2,4-diamine]
Kd (ClpB E279Q/E678Q): 0.0785 µM
effect on ATP-dependent binding of casein to ClpB (ClpB E279Q/E678Q; 80-μM DBeQ): did not inhibit
Hill number of ClpB–FITC-casein binding with DBeQ (ClpB E279Q/E678Q; 80-μM DBeQ, 5-mM ATP): 1.48
saturation signal of ClpB–FITC-casein binding with DBeQ (ClpB E279Q/E678Q; 80-μM DBeQ, 5-mM ATP): 0.11
Kd (ClpB W543F): 59.1 ± 4.1 µM
Bmax (SPR signal at saturation), ClpB W543F (ClpB W543F; SPR): 1.07 ± 0.03
Hill coefficient, ClpB W543F (ClpB W543F; SPR): 2.4 ± 0.4
Bmax (SPR signal at saturation), DnaK (DnaK): 2.07 ± 0.20
Kd (DnaK; apparent Kd, DBeQ binding to DnaK, SPR, non-cooperative model, approximate, close to ligand solubility limit): 105 µM and ~100 µM
DBeQ concentrations obeying Beer–Lambert law without significant turbidity increase [1]: up to 100 μM
effect on growth of E. coli (E. coli MC4100; MC4100, 37 °C): suppressed the growth; also recorded: inhibited the growth
effect on viability of E. coli under heat shock (E. coli MC4100; MC4100, 45 °C): exacerbated by heat shock; also recorded: strongly inhibited
effect on viability of E. coli at severe heat shock (E. coli MC4100; MC4100, 50 °C): lost viability at the lowest DBeQ concentrations tested
